The source of these data is patent publication US20230032216A1, “INTERLEUKIN-4-INDUCED GENE 1 (IL4I1) AND RESPECTIVE METABOLITES AS BIOMARKERS FOR CANCER” (DEUTSCHES KREBSFORSCHUNGSZENTRUM STIFTUNG DES ÖFFENTLICHEN …, priority 2019, published 2023).

Data set [1] is described as follows: Conversion of I3P to KynA under cell-free conditions. It is filed as physicochemical.
The test system of the next data set is U-87MG cells. Briefly: Wound healing (migration) assay with Ctrl and IL4I1-expressing glioblastoma cells. It is filed as cell-based, human. The conditions noted are these: ectopically IL4I1-expressing U-87MG cells, 1 μM SR1, FIG. 3C. On the procedure:
Cells were seeded in 2-well cell culture inserts (ibidi, 80209) placed in 24-well plates. For U-87MG cells, as well as Ctrl and IL4I1-expressing U-87MG cells, 3×10^4 cells in 100 μL medium per well of cell culture insert were seeded. In the case of Ctrl and IL4I1-expressing U-251MG cells, 4×10^4 in 100 μL medium per well of cell culture insert were seeded. Cells were incubated for 16 h, inserts were removed and 1 mL of complete DMEM medium was added to each well of the plate. Cell migration was monitored by taking pictures at indicated time points, until gap (500 μm+/−100 μm) was covered by cells. In the case where U-87MG cells were treated with I3P or SR1, treatments were applied at the time of seeding the cells in the 2 well cell culture inserts. In addition, after 16 h incubation time and insert removal, 1 mL of complete DMEM medium containing treatments was applied to cells and kept throughout the assay. For each independent experiment, 3 pictures per well were taken and each condition was carried out at least in 3 wells. Pictures were taken with an ECLIPSE Ti-E/B inverted microscope (Nikon) with the 4×objective and using the NIS Elements software version 4.13.04. Pictures were analyzed with TScratch software version 1.0 (Geback et al., 2009). Cell migration was assessed by calculating the percentage of covered area for each time point normalized to the area at the 0 h time point.

The test system of data set [2] is advanced melanoma. The conditions noted are these: epacadostat in combination with the anti-PD-1 mAb pembrolizumab, advanced melanoma (Long et al., 2019); cited from earlier work.
Data set [3] relates to advanced melanoma. Briefly: RNA-seq of advanced melanoma patients before and on nivolumab treatment (Riaz et al., GSE91061). The format is in vivo, human. From the text: RNA-seq datasets-Raw counts and metadata were downloaded from GEO using GEOquery (Davis and Meltzer, 2007). The harmonized HT-Seq counts and Fragments Per Kilobase of transcript per Million mapped reads (FPKM) of TCGA datasets were downloaded using TCGAbiolinks (Colaprico et al., 2016) from Genomic Data Commons (GDC) (https://gdc.cancer.gov/), and only patients with the identifier “primary tumor” were retained, with the exception of melanoma that was split into datasets for primary and metastatic cohorts. The FPKM values were converted to transcripts per million (TPMs) (Li and Dewey, 2011). TPM data of normal tissues were downloaded from the Genotype-Tissue Expression (GTEx) dataset (https://gtexportal.org/home/). All TPM values were log 2 transformed. Raw counts of the Riaz et al. […] (Riaz et al., 2017) advanced melanoma dataset were downloaded from https://github.com/riazn/bms038_analysis, and based on principle component analysis one outlier patient pair was removed (Pt-84). RNA-seq counts were saved as DGELists (Robinson et al., 2010). Genes with less than 10 counts were filtered followed by trimmed mean of M values (TMM) normalization (Robinson and Oshlack, 2010) and variance modeling using voom (Law et al., 2014).

Setting [4] is: advanced melanoma patients, before vs after nivolumab, FIG. 8C, re-analysis of Riaz et al. 2017.

`O=C(O)C(=O)Cc1c[nH]c2ccccc12` [I3P, Indole-3-pyruvic acid]: the “Formation of KynA from I3P” value in data set [1] (data not shown) is reported as “formed spontaneously”. The “Formation of KynA from I3P in the presence of H2O2” value in data set [1] (with H2O2, data not shown) was “enhanced”.

Consider `CC(C)n1cnc2c(NCCc3ccc(O)cc3)nc(-c3csc4ccccc34)nc21` [SR1], for which the “IL4I1-mediated motility of AHR-proficient cells” value with U-87MG cells is recorded as “reversed”.

`NS(=O)(=O)NCCNc1nonc1C(=NO)Nc1ccc(F)c(Br)c1` [epacadostat]: the “Clinical benefit in phase III trial” value in the data set on advanced melanoma [2] was “failed”.

For the compound “nivolumab: anti-PD-1 monoclonal antibody (mAb) nivolumab”, in the data set with advanced melanoma [3] (advanced melanoma patients after nivolumab, FIG. 8D), the “AHR activation (AHR signature)” value is recorded as “resulted in AHR activation”. Moreover, in the data set with advanced melanoma [3] (advanced melanoma patients before vs on Nivolumab therapy, FIG. 10), the “Hallmark of cancer gene set enrichment” value was “strong upregulation of inflammatory hallmark gene signatures”. Further, in the data set on advanced melanoma [3] (setting [4]), the IDO1 expression entry is reported as “induced” and the IL4I1 expression result is recorded as “induced”. Besides, the IL4I1 expression result in the data set with advanced melanoma [3] (advanced melanoma patients, before vs after nivolumab, FIG. 8C, re-analysis of Riaz et al. 2017, listed as Nivolumab) is on record as “higher expression of IL4I1”. Besides, the “IL4I1 expression in ipilimumab-naïve patients” value in the data set on advanced melanoma [3] (ipilimumab-naïve advanced melanoma patients, response to nivolumab, FIG. 8E) was “significant IL4I1 increase”.
